Values after ≈ are worked out from the molar mass of the structure shown.
Columns and labels:
M. tuberculosis H37Rv = assay: Antitubercular activity, Microplate Alamar Blue test (MABA); assay type: cell-based, Mycobacterium tuberculosis; conditions: Mycobacterium tuberculosis, H37RV, n = 3
[1] = target: InhA enzyme from M. tuberculosis (Mycobacterium tuberculosis, UniProt P9WGR1); assay: InhA inhibition assay; assay type: biochemical
MtDHFR = MtDHFR (Mycobacterium tuberculosis, UniProt P9WNX1); assay: biochemical; assay type: biochemical
Sequence of MtDHFR (P9WNX1 whole entry): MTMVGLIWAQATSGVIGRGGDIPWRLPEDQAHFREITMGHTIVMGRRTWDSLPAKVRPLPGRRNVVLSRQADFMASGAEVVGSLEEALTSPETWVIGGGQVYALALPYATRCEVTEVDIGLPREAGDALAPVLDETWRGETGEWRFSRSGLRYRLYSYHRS

[2] = system: human lung cancer cell line A549; assay: MTT-based cytotoxicity; assay type: cell-based; conditions: Homo sapiens, A549; MTT assay
Procedure: The cytotoxic effects of seventeen selected molecules were assessed against the A549 human lung adenocarcinoma cell line using the MTT assay. Cisplatin served as the reference drug for comparison. Lower IC50 values indicate higher cytotoxicity.
The cytotoxic activity (IC50) of selected compounds against A549 (lung adenocarcinoma) MV cell-lines was evaluated by performing cellular conversion of MTT [3-(4,5-dimethylthiazo-2-yl)-2,5-diphenyl-tetrazolium bromide] into a formazan product. This evaluation was conducted up to a concentration of 50 mg/mL using the Promega Cell Titre 96 non-radioactive cell proliferation assay, with cisplatin serving as the positive control. Cytotoxicity is commonly quantified by determining the IC50 value, which represents the quantity of a substance that reduces the optical density of treated cells by 50% compared to untreated cells, as measured by the MTT experiment. The results are presented as IC50 values (mean ± standard error of the mean (SEM) obtained from three separate and independent measurements.

E. coli ATCC 25922 = assay: Antibacterial activity, broth microdilution (E. coli); conditions: for MIC: Escherichia coli, ATCC25922, read-out: E. coli ATCC 25922 (Gram –ve) MIC, broth microdilution
Procedure: (§1) All twenty-eight molecules were evaluated for in vitro antimicrobial activities that were assessed against Gram +ve and Gram -ve strains.
(§2) The antibacterial inhibitory effects of all compounds were assessed using the broth microdilution method, with ciprofloxacin serving as the reference medication.

S. aureus ATCC 29213 = assay: Antibacterial activity, broth microdilution (S. aureus); conditions: Staphylococcus aureus, ATCC29213, read-out: S. aureus ATCC 29213 (Gram +ve) MIC
Procedure: as §1, §2

Sequence of InhA enzyme from M. tuberculosis (P9WGR1 whole entry, looked up): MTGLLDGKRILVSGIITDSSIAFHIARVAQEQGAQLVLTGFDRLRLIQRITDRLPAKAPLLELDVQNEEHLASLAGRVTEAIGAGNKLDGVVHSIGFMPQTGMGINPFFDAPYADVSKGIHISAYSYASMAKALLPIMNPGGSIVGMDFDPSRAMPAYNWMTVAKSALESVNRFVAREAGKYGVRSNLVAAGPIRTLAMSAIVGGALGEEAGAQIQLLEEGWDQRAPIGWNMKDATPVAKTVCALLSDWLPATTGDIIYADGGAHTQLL

`CC(=NNC(=O)COC(=O)c1ccc(-n2cccc2)cc1)c1cccc(Br)c1` [Compound 5f, 2-(2-(1-(3-bromophenyl)ethylidene)hydrazinyl)-2-oxoethyl 4-(1H-pyrrol-1-yl)benzoate] was tested, and the MIC (M. tuberculosis H37Rv) was 1.6 µg/mL (≈ 3.63 µM), the inhibition at 50 µM ([1]; read-out: % InhA Inhibition at 50 µM) was 43% and the IC50 (MtDHFR) was 153 µM. For the same compound, the IC50 [2] was 275 ± 0.4 µg/mL (≈ 625 µM), the MIC (E. coli ATCC 25922) was 1.6 µg/mL (≈ 3.63 µM) and the MIC (S. aureus ATCC 29213) was 3.12 µg/mL (≈ 7.09 µM).

With `O=C(OCC(=O)n1[nH]c(=O)ccc1=O)c1ccc(-n2cccc2)cc1` [Compound 4e, 2-(3,6-dioxo-2,3-dihydropyridazin-1(6H)-yl)-2-oxoethyl 4-(1H-pyrrol-1-yl)benzoate] the MIC (M. tuberculosis H37Rv) was 1.6 µg/mL (≈ 4.72 µM), the IC50 (MtDHFR) was 32 µM and the “MtDHFR inhibition, in words, compared with trimethoprim” value (MtDHFR) was “greater inhibition characteristics than trimethoprim”. For the same compound, the MIC (E. coli ATCC 25922) was 1.6 µg/mL (≈ 4.72 µM) and the MIC (S. aureus ATCC 29213) was 6.25 µg/mL (≈ 18.4 µM).

With `O=C(COC(=O)c1ccc(-n2cccc2)cc1)NN=Cc1ccccc1Br` [Compound 6b, 2-(2-(2-bromobenzylidene)hydrazinyl)-2-oxoethyl 4-(1H-pyrrol-1-yl)benzoate] the MIC (M. tuberculosis H37Rv) was 1.6 µg/mL (≈ 3.75 µM), the “% InhA Inhibition at 50 µM” value [1] was “no inhibition” and the IC50 (MtDHFR) was 130 µM. It also gave an MIC (E. coli ATCC 25922) of 1.6 µg/mL (≈ 3.75 µM) and an MIC (S. aureus ATCC 29213) of 3.12 µg/mL (≈ 7.32 µM).

With `C/C(=N\NC(=O)COC(=O)c1ccc(-n2cccc2)cc1)c1ccc([N+](=O)[O-])cc1` [Compound 5d, 2-(2-(1-(4-nitrophenyl)ethylidene) hydrazineyl) -2-oxoethyl-4-(1H-pyrrol-1-yl) benzoate] the MIC (M. tuberculosis H37Rv) was 1.6 µg/mL (≈ 3.94 µM), the IC50 (MtDHFR) was 121 µM and the MIC (E. coli ATCC 25922) was 1.6 µg/mL (≈ 3.94 µM). For the same compound, the MIC (S. aureus ATCC 29213) was 6.25 µg/mL (≈ 15.4 µM).

`CC(=NNC(=O)COC(=O)c1ccc(-n2cccc2)cc1)c1ccc(Cl)cc1Cl` [Compound 5n, 2-(2-(1-(2,4-dichlorophenyl)ethylidene)hydrazinyl)-2-oxoethyl 4-(1H-pyrrol-1-yl)benzoate] gave an MIC (M. tuberculosis H37Rv) of 3.12 µg/mL (≈ 7.25 µM), an IC50 (MtDHFR) of 93 µM and an MIC (E. coli ATCC 25922) of 0.4 to 0.8 µg/mL (≈ 0.93 to 1.86 µM). The “E. coli ATCC 25922 (Gram –ve) MIC” value (E. coli ATCC 25922; broth microdilution) was 0.8 µg/mL and the MIC (S. aureus ATCC 29213) was 6.25 µg/mL (≈ 14.5 µM).

For `CC(=NNC(=O)COC(=O)c1ccc(-n2cccc2)cc1)c1cccc(O)c1` [Compound 5p, 2-(2-(1-(3-hydroxyphenyl)ethylidene)hydrazinyl)-2-oxoethyl 4-(1H-pyrrol-1-yl)benzoate], the MIC (M. tuberculosis H37Rv) was 3.12 µg/mL (≈ 8.27 µM), the IC50 (MtDHFR) was 115 µM and the MIC (E. coli ATCC 25922) was 3.12 µg/mL (≈ 8.27 µM). It also gave an MIC (S. aureus ATCC 29213) of 12.5 µg/mL (≈ 33.1 µM).

Work on `CC(=NNC(=O)COC(=O)c1ccc(-n2cccc2)cc1)c1ccc(Cl)cc1` [Compound 5c, 2-(2-(1-(4-chlorophenyl)ethylidene)hydrazinyl)-2-oxoethyl 4-(1H-pyrrol-1-yl)benzoate] yielded an MIC (M. tuberculosis H37Rv) of 1.6 µg/mL (≈ 4.04 µM), an IC50 (MtDHFR) of 100 µM and an MIC (E. coli ATCC 25922) of 1.6 µg/mL (≈ 4.04 µM). For the same compound, the MIC (S. aureus ATCC 29213) was 6.25 µg/mL (≈ 15.8 µM).

In the case of `O=C1CCC(=O)N(C(=O)COC(=O)c2ccc(-n3cccc3)cc2)N1` [Compound 4d, 2-(3,6-dioxotetrahydropyridazin-1(2H)-yl)-2-oxoethyl 4-(1H-pyrrol-1-yl)benzoate], the MIC (M. tuberculosis H37Rv) is reported as 1.6 µg/mL (≈ 4.69 µM), the IC50 (MtDHFR) is reported as 31 µM and the “MtDHFR inhibition, in words, compared with trimethoprim” value (MtDHFR) is reported as “greater inhibition characteristics than trimethoprim”. For the same compound, the MIC (E. coli ATCC 25922) was 1.6 µg/mL (≈ 4.69 µM) and the MIC (S. aureus ATCC 29213) was 6.25 µg/mL (≈ 18.3 µM).

For `[H]/N=C(/N)N[C@H]1[C@H](O)[C@@H](O)[C@H](O[C@@H]2O[C@@H](C)[C@](O)(C=O)[C@H]2O[C@@H]2O[C@@H](CO)[C@H](O)[C@@H](O)[C@@H]2NC)[C@@H](N/C(N)=N\[H])[C@@H]1O` [Streptomycin, reference compound], the MIC (M. tuberculosis H37Rv) was 0.8 µg/mL (≈ 1.38 µM) and the MIC (S. aureus ATCC 29213) was 2 µg/mL (≈ 3.44 µM).

In the case of `COc1ccc(C=NNC(=O)COC(=O)c2ccc(-n3cccc3)cc2)cc1` [Compound 6e, 2-(2-(4-methoxybenzylidene)hydrazinyl)-2-oxoethyl 4-(1H-pyrrol-1-yl)benzoate], the MIC (M. tuberculosis H37Rv) is reported as 1.6 µg/mL (≈ 4.24 µM), the “% InhA Inhibition at 50 µM” value [1] is reported as “no inhibition” and the IC50 (MtDHFR) is reported as 69 µM. The “MtDHFR inhibition, in words, compared with trimethoprim” value (MtDHFR) was “moderate inhibition”, the MIC (E. coli ATCC 25922) was 1.6 µg/mL (≈ 4.24 µM) and the MIC (S. aureus ATCC 29213) was 6.25 µg/mL (≈ 16.6 µM).

`CC(=NNC(=O)COC(=O)c1ccc(-n2cccc2)cc1)c1ccc(C)cc1` [Compound 5e, 2-oxo-2-(2-(1-(p-tolyl)ethylidene)hydrazinyl)ethyl 4-(1H-pyrrol-1-yl)benzoate] was tested, and the MIC (M. tuberculosis H37Rv) was 1.6 µg/mL (≈ 4.26 µM), the IC50 (MtDHFR) was 118 µM and the MIC (E. coli ATCC 25922) was 3.12 µg/mL (≈ 8.31 µM). For the same compound, the MIC (S. aureus ATCC 29213) was 12.5 µg/mL (≈ 33.3 µM).

`COc1ccc(C(C)=NNC(=O)COC(=O)c2ccc(-n3cccc3)cc2)cc1` [Compound 5i, 2-(2-(1-(4-methoxyphenyl)ethylidene)hydrazinyl)-2-oxoethyl 4-(1H-pyrrol-1-yl)benzoate] gave an MIC (M. tuberculosis H37Rv) of 3.12 µg/mL (≈ 7.97 µM), an IC50 (MtDHFR) of 129 µM and an MIC (E. coli ATCC 25922) of 1.6 µg/mL (≈ 4.09 µM). For the same compound, the MIC (S. aureus ATCC 29213) was 6.25 µg/mL (≈ 16 µM).

Work on `CC(=NNC(=O)COC(=O)c1ccc(-n2cccc2)cc1)c1ccc(N)cc1` [Compound 5o, 2-(2-(1-(4-aminophenyl)ethylidene)hydrazinyl)-2-oxoethyl 4-(1H-pyrrol-1-yl)benzoate] yielded an MIC (M. tuberculosis H37Rv) of 3.12 µg/mL (≈ 8.29 µM), an IC50 (MtDHFR) of 90 µM and an MIC (E. coli ATCC 25922) of 3.12 µg/mL (≈ 8.29 µM). It also gave an MIC (S. aureus ATCC 29213) of 12.5 µg/mL (≈ 33.2 µM).

Reference: article PMC12088000, “Design, synthesis and in silico molecular modelling studies of 2-Hydrazineyl-2-oxoethyl-4-(1H-pyrrol-1-yb) benzoate derivatives: a potent dual DHFR and ENR-reductase inhibitors with antitubercular, antibacterial and cytotoxic potential” (PLOS One, 2025)
